Data set [1] is described as follows: log P determination by HPLC on reverse phase column, pH 2.3. As to conditions: reverse phase column (C 18), pH 2.3, 43° C.; for chromatographic logP: reverse phase HPLC column (C 18). The format is physicochemical. The method, then: The determination of the log P values given in the above table and preparation examples is carried out in accordance with EEC directive 79/831 Annex V.A8 by HPLC (High Performance Liquid Chromatography) on a reverse phase column (C 18). Temperature: 43° C. The determination is carried out under acidic conditions at pH 2.3 with 0.1% aqueous phosphoric acid and acetonitrile as eluents; linear gradient of 10% acetonitrile to 95% acetonitrile. Calibration was is carried out with unbranched alkan-2-ones (with 3 to 16 carbon atoms) of known log P values (Determination of log P values by the retention times by linear interpolation between two sequential alkanones).

For data set [2], the system named is green peach aphid (Myzus persicae). As to the kind of experiment: Myzus test (spray treatment). Format: in vivo. The settings on record: for pest or weed control at 100 g/ha: Myzus persicae, in Brassica oleracea, 120 h, read-out: Death rate in % after 5d; for activity in Myzus test (spray treatment): statement in words. Here is the method:
[table] For the preparation of a suitable active compound formulation 1 part by weight of the active compound is mixed with the above amounts of solvent and emulsifier and the concentrate is diluted to the desired concentration with water containing emulsifier. China cabbage slices (Brassica pekinensis) that are infected with all stages of the green peach aphid (Myzus persicae) are sprayed with an active compound preparation at the desired concentration. After the desired time the activity in % is determined. Here 100% means that all aphids were killed; 0% means that no aphids were killed.

Data set [3] deals with caterpillars of the fall army worm (Spodoptera frugiperda). Kind of data set: Spodoptera frugiperda test (spray treatment). Format: in vivo. The method, then:
[table] For the preparation of a suitable active compound formulation 1 part by weight of the active compound is mixed with the above amounts of solvent and emulsifier and the concentrate is diluted to the desired concentration with water containing emulsifier. Maize leaf sections (Zea mays) are sprayed with an active compound preparation of the desired concentration and after drying infected with caterpillars of the fall army worm (Spodoptera frugiperda). After the desired time the activity in % is determined. Here 100% means that all caterpillars were killed; 0% means that no caterpillars were killed.

The mark [4] stands for this setting: 100 g/ha, spray treatment, China cabbage slices, after 5 d.

Structures can show the parent of a compound that is named as a salt.

What is called chromatographic logP is lipophilicity estimated from chromatographic retention. Low values mean a more hydrophilic compound, high ones a more lipophilic compound. In turn, `Cc1nc(Cn2nc(C(F)(F)F)cc2C(F)(F)F)ncc1C(=O)O` [2-(3,5-bistrifluoromethylpyrazol-1-yl-methyl)-4-methylpyrimidin-5-carboxylic acid] gave a chromatographic logP in data set [1] of 2.68.
On the same count and under the same terms, for `CSC[C@H](C)NC(=O)c1c(Cl)cccc1C(=O)Nc1cc(Cn2nc(C(F)(F)F)nc2C(F)(F)F)sc1C` [Example 3] the value was 3.8; for `CSC[C@H](C)NC(=O)c1c(Cl)cccc1C(=O)Nc1cnc(Cn2nc(C(F)(F)F)cc2C(F)(F)F)nc1C` [Example 4, N^1-[2-(3,5-bis-trifluoromethyl-pyrazol-1-ylmethyl)-4-methylpyrimidin-5-yl]-3-chloro-N^2-(S-1-methyl-2-methylsulphanylethyl)phthalamide], 3.39.
Turning to `Cc1nc(Cn2nc(C(F)(F)F)cc2C(F)(F)F)ncc1NC(=O)c1cccc(Cl)c1C(=O)N[C@@H](C)C[S+](C)[O-]` (stereo partly shown) [Example 5, N^1-[2-(3,5-bistrifluoromethylpyrazol-1-ylmethyl)-4-methylpyrimidin-5-yl]-3-chloro-N^2-(S-2-methanesulphinyl-1-methylethyl)phthalamide], in data set [2] (setting [4]), the pest or weed control at 100 g/ha came to 80%. Also, the “activity in Myzus test (spray treatment)” value in data set [2] was “good activity”. Also, the chromatographic logP in data set [1] stood at 2.17.
`Cc1nc(Cn2nc(C(F)(F)F)cc2C(F)(F)F)ccc1NC(=O)c1cccc(Br)c1C(=O)NC(C)C[S+](C)[O-]` (stereo not shown) [Example 11]: the “log P (pH 2.3)” value in data set [1] was “log P (pH 2.3): 2.32”.
On the same count and under the same terms, for `CSCC(C)NC(=O)c1c(I)cccc1C(=O)Nc1ccc(Cn2nc(C(F)(F)F)nc2C(F)(F)F)nc1C` (stereo not shown) [Example 12] the value was “log P (pH 2.3): 3.52”.
Regarding `CSC[C@H](C)NC(=O)c1c(Br)cccc1C(=O)Nc1cnc(Cn2nc(C(F)(F)F)cc2C(F)(F)F)nc1C` [Example 18], the pest or weed control at 100 g/ha in data set [2] (setting [4]) was 100%. For the same compound, in data set [2], the “activity in Myzus test (spray treatment)” value is on record as “good activity”. This compound had a chromatographic logP in data set [1] of 3.44. For the same compound, the pest or weed control at 4 g/ha in data set [3] (Spodoptera frugiperda, 168 h, 4 g/ha, spray treatment, maize leaf sections, after 7 d, read-out: Death rate in % after 7d) turned out to be 100%. Also, the “activity in Spodoptera frugiperda test (spray treatment)” value in data set [3] (statement in words) is “good activity”.
For the compound `CSC[C@H](C)NC(=O)c1c(Cl)cccc1C(=O)Nc1cnc(Cn2nc(C(F)(F)F)nc2C(F)(F)F)nc1C` [Example 20], the pest or weed control at 100 g/ha in data set [2] (setting [4]) was 100%. Besides, in data set [2], the “activity in Myzus test (spray treatment)” value is on record as “good activity”. The chromatographic logP in data set [1] is 3.24.
For `CSC[C@H](C)NC(=O)c1c(Br)cccc1C(=O)Nc1cnc(Cn2nc(C(F)(F)F)nc2C(F)(F)F)nc1C` [Example 21], in that order: 100%, “good activity” and 3.29.
The like results for `CSC[C@H](C)NC(=O)c1c(I)cccc1C(=O)Nc1cnc(Cn2nc(C(F)(F)F)nc2C(F)(F)F)nc1C` [Example 22] were, in that order, 90%, “good activity” and 3.35.
Take `Cc1nc(Cn2nc(C(F)(F)F)cc2C(F)(F)F)ncc1NC(=O)c1cccc(Br)c1C(=O)N[C@@H](C)C[S+](C)[O-]` (stereo partly shown) [Example 23]: the pest or weed control at 100 g/ha in data set [2] (setting [4]) turned out to be 80%. The “activity in Myzus test (spray treatment)” value in data set [2] is “good activity”. This compound also had a chromatographic logP in data set [1] of 2.2.
For `Cc1nc(Cn2nc(C(F)(F)C(F)(F)F)cc2C(F)(F)C(F)(F)F)ncc1NC(=O)c1cccc(Cl)c1C(=O)NC(C)CS(C)(=O)=O` (stereo not shown) [Example 25], the “log P (pH 2.3)” value in data set [1] was “log P (pH 2.3): 3.29”.
Same read-out and setting: the entry for `Cc1nc(Cn2nc(C(F)(F)C(F)(F)F)cc2C(F)(F)C(F)(F)F)ncc1NC(=O)c1cccc(Cl)c1C(=O)NC(C)C[S+](C)[O-]` (stereo not shown) [Example 26] is “log P (pH 2.3): 2.91”.
Same read-out and setting: the entry for `CSCC(C)NC(=O)c1c(Cl)cccc1C(=O)Nc1cnc(Cn2nc(C(F)(F)C(F)(F)F)cc2C(F)(F)C(F)(F)F)nc1C` (stereo not shown) [Example 27] is “log P (pH 2.3): 4.11”.
Take `Cc1nc(Cn2nc(C(F)(F)C(F)(F)F)nc2C(F)(F)F)ncc1NC(=O)c1cccc(Br)c1C(=O)N[C@@H](C)C[S+](C)[O-]` (stereo partly shown) [Example 28]: in data set [2] (setting [4]), the pest or weed control at 100 g/ha was 100%. In data set [2], the “activity in Myzus test (spray treatment)” value is reported as “good activity”. In data set [1], this compound returned a chromatographic logP of 2.42.
For `Cc1nc(Cn2nc(C(F)F)cc2C(F)F)ncc1NC(=O)c1cccc(Cl)c1C(=O)NC(C)C[S+](C)[O-]` (stereo not shown) [Example 32], the “log P (pH 2.3)” value in data set [1] is “log P (pH 2.3): 1.67”.
Same read-out and setting: the entry for `Cc1nc(Cn2nc(C(F)F)cc2C(F)F)ncc1NC(=O)c1cccc(Cl)c1C(=O)NC(C)CS(C)(=O)=O` (stereo not shown) [Example 33] is “log P (pH 2.3): 1.89”.
The same measure, in the same setting: the entry for `CSCC(C)NC(=O)c1c(Cl)cccc1C(=O)Nc1cnc(Cn2nc(C(F)F)cc2C(F)F)nc1C` (stereo not shown) [Example 35] is “log P (pH 2.3): 2.65”.
On to `Cc1nc(Cn2nc(C(F)(F)F)nc2C(F)(F)F)ncc1NC(=O)c1cccc(Br)c1C(=O)N[C@@H](C)C[S+](C)[O-]` (stereo partly shown) [Example 36], for which the pest or weed control at 100 g/ha in data set [2] (setting [4]) was determined as 100%. The “activity in Myzus test (spray treatment)” value in data set [2] is “good activity”. This compound also showed a chromatographic logP in data set [1] of 2.07.
For `Cc1nc(Cn2nc(C(F)(F)F)nc2C(F)(F)F)ncc1NC(=O)c1cccc(Br)c1C(=O)N[C@@H](C)CS(C)(=O)=O` [Example 37], in that order: 100%, “good activity” and 2.49.
On to `Cc1nc(Cn2nc(C(F)(F)F)cc2C(F)(F)F)ncc1NC(=O)c1cccc(Cl)c1C(=O)N[C@@H](C)CS(C)(=O)=O` [Example 38], for which, in data set [2] (setting [4]), the pest or weed control at 100 g/ha was determined as 100%.
Regarding `Cc1nc(Cn2nc(C(F)(F)F)cc2C(F)(F)F)ncc1NC(=O)c1cccc(Cl)c1C(=O)N[C@@H](C)C[S+](C)[O-]` (stereo partly shown) [Example 39], the “Death rate in % after 5d” value in data set [2] (setting [4]) was 100%. For the same compound, the “activity in Myzus test (spray treatment)” value in data set [2] is listed as “good activity”.
Regarding `Cc1nc(Cn2nc(C(F)(F)F)nc2C(F)(F)F)ncc1NC(=O)c1cccc(I)c1C(=O)N[C@@H](C)C[S+](C)[O-]` (stereo partly shown) [Example 40], in data set [2] (setting [4]), the pest or weed control at 100 g/ha stood at 100%. Moreover, the “activity in Myzus test (spray treatment)” value in data set [2] was “good activity”. Moreover, the chromatographic logP in data set [1] worked out at 2.13.
For the compound `CSCC(C)NC(=O)c1c(Cl)cccc1C(=O)Nc1ccc(Cn2nc(C(F)(F)C(F)(F)F)cc2C(F)(F)F)nc1C` (stereo not shown) [Example 42], the “log P (pH 2.3)” value in data set [1] was “log P (pH 2.3): 3.95”.
On the same count and under the same terms, for `CSCC(C)NC(=O)c1c(Cl)cccc1C(=O)Nc1ccc(Cn2nc(C(F)(F)C(F)(F)F)nc2C(F)(F)F)nc1C` (stereo not shown) [Example 43] the value was “log P (pH 2.3): 3.80”; for `Cc1nc(Cn2nc(C(F)(F)F)cc2C(F)(F)F)ccc1NC(=O)c1cccc(Br)c1C(=O)NC(C)CS(C)(=O)=O` (stereo not shown) [Example 45], “log P (pH 2.3): 2.76”; for `CSCC(C)NC(=O)c1c(Cl)cccc1C(=O)Nc1ccc(Cn2nc(C(F)(F)C(F)(F)F)c(C(F)(F)F)c2F)nc1C` (stereo not shown) [Example 46], “log P (pH 2.3): 4.15”.
Same read-out and setting: for `CSCC(C)NC(=O)c1c(Cl)cccc1C(=O)Nc1ccc(Cn2nc(C(F)(F)C(F)(F)F)nc2C(F)(F)C(F)(F)F)nc1C` (stereo not shown) [Example 47] the value was “log P (pH 2.3): 4.23”; for `CSCC(C)NC(=O)c1c(Cl)cccc1C(=O)Nc1ccc(Cn2nc(C(F)(F)C(F)(F)F)cc2C(F)(F)C(F)(F)F)nc1C` (stereo not shown) [Example 49], “log P (pH 2.3): 4.37”.
Take `CCOC(=O)c1cnc(Cn2nc(C(F)(F)F)cc2C(F)(F)F)nc1C` [Example V-1, ethyl 2-(3,5-bistrifluoromethyl-pyrazol-1-yl-methyl)-4-methylpyrimidine-5-carboxylate]: in data set [1], the chromatographic logP turned out to be 3.96.
Still for that read-out and setting: for `CSC[C@H](C)/N=C1\OC(=O)c2cccc(I)c21` [II-1, 4-iodo-3-[(1S)-1-methyl-2-methylsulphanylethylimino]-3H-isobenzofuran-1-one] the value was 3.87.
Still for that read-out and setting: the figure for `Cc1nc(Cn2nc(C(F)(F)F)cc2C(F)(F)F)ncc1N` [IIIa-2, 2-(3,5-bis-trifluoromethylpyrazol-1-yl-methyl)-4-methylpyrimidin-5-yl-amine] is 2.43; for `N=C(N)Cn1nc(C(F)(F)F)cc1C(F)(F)F` [IX-1, 2-(3,5-bistrifluoromethyl-pyrazol-1-yl)acetamidine hydrochloride] it is 0.74.
The same measure, in the same setting: the figure for `Cc1nc(Cn2nc(C(F)(F)F)cc2C(F)(F)F)ncc1NC(=O)OC(C)(C)C` [VI-1, tert-butyl [2-(3,5-bistrifluoromethylpyrazol-1-ylmethyl)-4-methylpyrimidin-5-yl]carbamidate] is 3.84.
In data set [1], `COC(=O)Cn1nc(C(F)(F)F)cc1C(F)(F)F` [methyl (3,5-bistrifluoromethyl-pyrazol-1-yl)acetate] had a chromatographic logP of 2.93.
